Data reported in ChEMBL document CHEMBL5550104, “Discovery of 3-hydroxymethyl-azetidine derivatives as potent polymerase theta inhibitors” (Bioorg Med Chem, 2024).

Experiments:
DNA polymerase theta [1] = biological target: T1, DNA polymerase theta (Homo sapiens, UniProt O75417)
Cytochrome P450 1A2 = biological target: T2, Cytochrome P450 1A2 (Homo sapiens, UniProt P05177); assay: Inhibition of CYP1A2 in human liver microsomes using phenacetin as substrate incubated for 10 mins in presence of NADPH by LC-MS/MS analysis; assay type: ADME, Microsome
T2 sequence (P05177 whole entry): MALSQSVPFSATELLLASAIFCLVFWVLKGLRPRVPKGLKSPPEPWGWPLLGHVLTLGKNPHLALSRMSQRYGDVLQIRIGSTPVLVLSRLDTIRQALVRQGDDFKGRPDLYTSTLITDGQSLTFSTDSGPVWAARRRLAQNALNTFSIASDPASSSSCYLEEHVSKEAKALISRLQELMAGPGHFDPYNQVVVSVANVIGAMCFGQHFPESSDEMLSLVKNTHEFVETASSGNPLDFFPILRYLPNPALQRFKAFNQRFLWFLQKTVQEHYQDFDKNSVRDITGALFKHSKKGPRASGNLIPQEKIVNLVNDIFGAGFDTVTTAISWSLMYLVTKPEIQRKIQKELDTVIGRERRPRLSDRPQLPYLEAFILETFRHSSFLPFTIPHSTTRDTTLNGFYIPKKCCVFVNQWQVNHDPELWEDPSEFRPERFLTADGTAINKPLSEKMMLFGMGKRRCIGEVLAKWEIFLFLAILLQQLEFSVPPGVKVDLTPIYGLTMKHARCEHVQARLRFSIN

Cytochrome P450 2C9 = Cytochrome P450 2C9 (Homo sapiens, UniProt P11712); assay: Inhibition of CYP2C9 in human liver microsomes using diclofenac as substrate incubated for 10 mins in presence of NADPH by LC-MS/MS analysis; assay type: ADME, Microsome
Chain of Cytochrome P450 2C9 (P11712 whole entry): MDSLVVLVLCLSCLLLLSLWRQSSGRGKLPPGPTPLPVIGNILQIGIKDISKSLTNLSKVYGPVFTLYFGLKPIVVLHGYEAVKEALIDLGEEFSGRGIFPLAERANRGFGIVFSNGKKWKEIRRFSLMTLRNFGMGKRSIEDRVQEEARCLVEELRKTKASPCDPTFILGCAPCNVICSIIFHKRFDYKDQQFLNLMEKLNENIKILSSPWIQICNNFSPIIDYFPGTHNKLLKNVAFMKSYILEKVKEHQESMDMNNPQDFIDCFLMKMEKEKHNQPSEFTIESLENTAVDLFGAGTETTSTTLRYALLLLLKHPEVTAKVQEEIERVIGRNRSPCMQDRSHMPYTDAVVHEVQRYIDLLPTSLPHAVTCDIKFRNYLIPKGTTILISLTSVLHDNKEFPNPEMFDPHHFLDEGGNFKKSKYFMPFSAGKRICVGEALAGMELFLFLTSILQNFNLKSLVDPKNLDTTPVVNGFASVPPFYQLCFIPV

Cytochrome P450 2C19 = Cytochrome P450 2C19 (Homo sapiens, UniProt P33261); assay: Inhibition of CYP2C19 in human liver microsomes using S-mephenytoin as substrate incubated for 10 mins in presence of NADPH by LC-MS/MS analysis; assay type: ADME, Microsome
Chain of Cytochrome P450 2C19 (P33261 whole entry): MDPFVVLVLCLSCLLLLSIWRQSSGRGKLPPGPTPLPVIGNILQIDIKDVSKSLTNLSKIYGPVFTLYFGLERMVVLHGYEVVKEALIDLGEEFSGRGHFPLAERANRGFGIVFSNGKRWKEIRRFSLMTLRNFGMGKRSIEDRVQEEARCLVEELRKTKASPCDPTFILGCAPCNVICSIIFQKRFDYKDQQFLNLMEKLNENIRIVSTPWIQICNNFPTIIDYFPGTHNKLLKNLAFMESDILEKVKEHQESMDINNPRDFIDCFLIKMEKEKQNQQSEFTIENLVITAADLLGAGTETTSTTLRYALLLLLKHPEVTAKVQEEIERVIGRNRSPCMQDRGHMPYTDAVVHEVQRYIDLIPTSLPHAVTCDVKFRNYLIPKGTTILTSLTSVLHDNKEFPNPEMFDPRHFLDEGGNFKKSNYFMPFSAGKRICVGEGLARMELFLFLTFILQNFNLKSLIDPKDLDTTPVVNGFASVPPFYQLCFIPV

Cytochrome P450 2D6 = Cytochrome P450 2D6 (Homo sapiens, UniProt P10635); assay: Inhibition of CYP2D6 in human liver microsomes using dextromethorphan as substrate incubated for 10 mins in presence of NADPH by LC-MS/MS analysis; assay type: ADME, Microsome
Chain of Cytochrome P450 2D6 (P10635 whole entry): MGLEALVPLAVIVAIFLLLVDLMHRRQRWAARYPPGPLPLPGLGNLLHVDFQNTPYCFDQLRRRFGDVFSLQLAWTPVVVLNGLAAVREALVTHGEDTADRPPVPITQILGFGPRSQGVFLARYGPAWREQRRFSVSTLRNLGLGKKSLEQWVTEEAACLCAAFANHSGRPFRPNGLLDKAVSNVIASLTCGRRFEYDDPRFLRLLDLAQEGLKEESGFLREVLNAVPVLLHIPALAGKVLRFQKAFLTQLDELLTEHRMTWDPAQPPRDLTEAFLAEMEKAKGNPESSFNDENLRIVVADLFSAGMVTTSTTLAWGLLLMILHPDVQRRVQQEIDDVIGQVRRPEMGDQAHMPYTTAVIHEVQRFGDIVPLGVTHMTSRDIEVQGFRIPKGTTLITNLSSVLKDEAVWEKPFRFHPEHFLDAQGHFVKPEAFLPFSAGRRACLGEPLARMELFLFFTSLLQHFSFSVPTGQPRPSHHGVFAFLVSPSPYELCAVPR

Cytochrome P450 3A4 = Cytochrome P450 3A4 (Homo sapiens, UniProt P08684); assay: Inhibition of CYP3A4 in human liver microsomes using midazolam as substrate incubated for 10 mins in presence of NADPH by LC-MS/MS analysis; assay type: ADME, Microsome
Chain of Cytochrome P450 3A4 (P08684 whole entry): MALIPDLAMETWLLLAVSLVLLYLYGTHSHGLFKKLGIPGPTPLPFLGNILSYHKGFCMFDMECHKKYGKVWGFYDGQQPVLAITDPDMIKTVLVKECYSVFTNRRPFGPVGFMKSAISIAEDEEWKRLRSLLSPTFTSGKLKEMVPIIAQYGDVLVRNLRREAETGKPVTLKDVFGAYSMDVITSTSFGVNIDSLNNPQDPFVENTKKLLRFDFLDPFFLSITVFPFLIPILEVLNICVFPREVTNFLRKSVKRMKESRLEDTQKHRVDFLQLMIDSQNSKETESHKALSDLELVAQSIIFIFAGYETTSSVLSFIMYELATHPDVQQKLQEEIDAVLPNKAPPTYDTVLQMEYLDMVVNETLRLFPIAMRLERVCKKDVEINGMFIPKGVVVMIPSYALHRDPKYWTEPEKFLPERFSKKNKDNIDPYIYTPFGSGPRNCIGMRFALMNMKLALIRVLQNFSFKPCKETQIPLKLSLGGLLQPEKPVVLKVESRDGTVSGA

DNA polymerase theta [2] = biological target: T1, DNA polymerase theta; assay: Inhibition of DNA polymerase theta mediated TMEJ repair activity in human HEK293T cells transfected with TMEJ reporter incubated for 24 hrs by Nano-glo luciferase assay; assay type: cell-based
DLD-1 = assay: Antiproliferative activity against BRCA2 deficient human DLD-1 cells assessed as inhibition of cell growth incubated for 7 days by Cell-titer glo luminescence assay; assay type: functional, cell-based; conditions: DLD-1, 168 h

T1 sequence (O75417 whole entry): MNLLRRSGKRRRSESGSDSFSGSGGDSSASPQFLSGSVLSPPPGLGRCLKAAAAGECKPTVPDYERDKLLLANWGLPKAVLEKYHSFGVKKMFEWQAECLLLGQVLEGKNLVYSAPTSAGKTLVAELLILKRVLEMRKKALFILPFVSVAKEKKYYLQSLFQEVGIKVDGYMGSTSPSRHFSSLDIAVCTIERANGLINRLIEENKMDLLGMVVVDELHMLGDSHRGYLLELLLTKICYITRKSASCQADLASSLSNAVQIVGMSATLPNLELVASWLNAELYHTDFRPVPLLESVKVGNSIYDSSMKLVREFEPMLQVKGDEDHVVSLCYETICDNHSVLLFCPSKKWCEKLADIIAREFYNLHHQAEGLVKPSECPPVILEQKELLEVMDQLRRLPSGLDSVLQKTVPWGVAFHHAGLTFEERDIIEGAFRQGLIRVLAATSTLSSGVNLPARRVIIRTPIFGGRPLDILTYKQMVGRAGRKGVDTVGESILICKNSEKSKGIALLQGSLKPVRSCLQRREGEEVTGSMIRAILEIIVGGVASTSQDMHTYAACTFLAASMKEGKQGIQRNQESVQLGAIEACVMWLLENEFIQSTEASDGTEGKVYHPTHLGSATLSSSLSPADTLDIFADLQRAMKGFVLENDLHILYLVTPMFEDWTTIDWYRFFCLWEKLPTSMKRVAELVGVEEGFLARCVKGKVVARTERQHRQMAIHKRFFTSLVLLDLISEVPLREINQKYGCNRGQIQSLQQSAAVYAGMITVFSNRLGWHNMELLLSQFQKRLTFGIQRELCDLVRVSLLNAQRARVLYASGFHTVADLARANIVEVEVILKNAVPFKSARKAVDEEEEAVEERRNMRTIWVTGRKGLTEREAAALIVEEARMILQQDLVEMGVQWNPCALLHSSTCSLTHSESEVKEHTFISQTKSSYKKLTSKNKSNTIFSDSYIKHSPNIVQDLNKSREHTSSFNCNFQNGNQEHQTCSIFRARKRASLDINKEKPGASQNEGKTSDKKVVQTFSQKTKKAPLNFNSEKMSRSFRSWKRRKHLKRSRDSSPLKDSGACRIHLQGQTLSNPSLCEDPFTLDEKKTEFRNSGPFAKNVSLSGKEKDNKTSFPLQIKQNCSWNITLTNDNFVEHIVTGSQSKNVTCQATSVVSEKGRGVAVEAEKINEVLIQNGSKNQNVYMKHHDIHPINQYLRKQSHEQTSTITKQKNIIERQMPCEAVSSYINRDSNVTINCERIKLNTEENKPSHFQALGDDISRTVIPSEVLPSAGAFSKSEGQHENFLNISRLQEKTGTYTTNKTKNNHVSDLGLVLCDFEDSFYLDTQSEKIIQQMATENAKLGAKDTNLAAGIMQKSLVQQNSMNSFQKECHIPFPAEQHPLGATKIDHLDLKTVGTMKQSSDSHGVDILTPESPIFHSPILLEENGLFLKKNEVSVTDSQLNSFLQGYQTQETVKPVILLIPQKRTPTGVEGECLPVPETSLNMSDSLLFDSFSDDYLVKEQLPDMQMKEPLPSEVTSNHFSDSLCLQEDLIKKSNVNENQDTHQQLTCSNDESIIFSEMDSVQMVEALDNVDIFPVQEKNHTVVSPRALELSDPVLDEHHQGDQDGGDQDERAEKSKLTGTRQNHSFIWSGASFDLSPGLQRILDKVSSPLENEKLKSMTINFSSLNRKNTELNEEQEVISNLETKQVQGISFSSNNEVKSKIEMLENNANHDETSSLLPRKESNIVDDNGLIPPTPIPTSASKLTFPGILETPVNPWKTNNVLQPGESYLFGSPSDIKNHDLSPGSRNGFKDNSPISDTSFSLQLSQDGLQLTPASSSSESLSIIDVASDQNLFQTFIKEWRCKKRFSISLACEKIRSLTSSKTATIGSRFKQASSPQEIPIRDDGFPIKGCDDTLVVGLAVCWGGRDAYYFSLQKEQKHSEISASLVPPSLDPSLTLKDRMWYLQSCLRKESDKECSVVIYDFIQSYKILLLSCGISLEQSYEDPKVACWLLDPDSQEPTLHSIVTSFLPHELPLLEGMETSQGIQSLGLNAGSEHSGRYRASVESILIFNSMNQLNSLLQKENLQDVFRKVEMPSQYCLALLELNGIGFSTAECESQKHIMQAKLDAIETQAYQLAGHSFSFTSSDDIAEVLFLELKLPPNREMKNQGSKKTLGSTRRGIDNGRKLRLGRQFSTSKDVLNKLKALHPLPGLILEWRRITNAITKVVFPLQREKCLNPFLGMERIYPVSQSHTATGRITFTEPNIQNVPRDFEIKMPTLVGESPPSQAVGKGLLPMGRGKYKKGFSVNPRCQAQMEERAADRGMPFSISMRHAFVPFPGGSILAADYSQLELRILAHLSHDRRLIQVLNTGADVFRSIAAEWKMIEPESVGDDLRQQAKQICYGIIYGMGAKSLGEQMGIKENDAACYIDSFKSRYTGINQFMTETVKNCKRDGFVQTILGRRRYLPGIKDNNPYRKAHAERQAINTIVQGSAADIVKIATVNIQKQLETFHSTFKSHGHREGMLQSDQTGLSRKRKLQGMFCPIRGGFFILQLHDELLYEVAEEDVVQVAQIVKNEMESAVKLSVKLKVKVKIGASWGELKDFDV

IC50 (DNA polymerase theta [1]) [nM] | SMILES | other results
923 | Cc1cc(C(F)(F)F)c(C#N)c(N2C[C@@H](CCl)[C@H]2C(=O)N(C)c2ccc(F)c(Cl)c2)n1 | –
104 | Cc1cc(C(F)(F)F)c(C#N)c(N2CC[C@H]2C(=O)N(C)c2ccc(F)c(Cl)c2)n1 | –
41.3 | Cc1cc(C(F)(F)F)cc(N2C(=O)C[C@H]2C(=O)N(C)c2ccc(F)c(Cl)c2)n1 | –
221 | Cc1cc(C(F)(F)F)cc(N2CC[C@H]2C(=O)N(C)c2ccc(F)c(Cl)c2)n1 | –

More lines, now with the values behind:

SMILES | IC50 (DNA polymerase theta [1]) [nM] | other results
Cc1cc(C(F)(F)F)c(C#N)c(N2C(=O)C[C@H]2C(=O)N(C)c2ccc(F)c(Cl)c2)n1 | 858 | –
Cc1cc(C(F)(F)F)cc(N2CCOC[C@H]2C(=O)N(C)c2ccc(F)c(Cl)c2)n1 | 3890 | –
[2H]C([2H])([2H])N(C(=O)[C@@H]1[C@H](CO)CN1c1nc(C)cc(C(F)(F)F)c1C#N)c1ccc(F)c(Cl)c1 | – | IC50 (Cytochrome P450 1A2): > 50000 nM; IC50 (Cytochrome P450 2C9): 3100 nM; IC50 (Cytochrome P450 2C19): 770 nM; IC50 (Cytochrome P450 2D6): 17300 nM; IC50 (Cytochrome P450 3A4): 14600 nM
Cc1cc(C(F)(F)F)c(C#N)c(N2CC[C@@H](O)[C@H]2C(=O)N(C)c2ccc(F)c(Cl)c2)n1 | 7.9 | IC50 (DNA polymerase theta [2]): 160 nM; IC50 (DLD-1): 5500 nM
